Assay [1] has as its system silver sensitive E. coli J53. Briefly: MIC against silver sensitive E. coli J53. Type of assay: cell-based. The note with it: Escherichia coli.
The test system of the next assay is M. tuberculosis. Briefly: MIC against M. tuberculosis. Type of assay: cell-based. The note with it: Mycobacterium tuberculosis.
For assay [2], the system named is J53 containing the silver resistance plasmid pMG101. Briefly: microbe, parasite or virus in culture. The class given is cell-based, E. coli. The settings on record: Escherichia coli.
Assay [3] can be described thus: MIC testing against panel of bacterial strains. The class given is cell-based. The settings on record: panel of strains; prior to loading in nanoparticles.
The subject of assay [4] is P. aeruginosa (PAO1, PAM57-15 and PAJG3), B. cepacia (PC783), B. multivorans (HI2229), B. cenocepacia (J2315), B. dolosa, M. tuberculosis and control E. coli …. Briefly: MIC testing against panel of bacterial strains. The class given is cell-based. The settings on record: prior to loading in nanoparticles; for MIC range: panel of strains.

As to `CCCCCCN1C(Cl)=C(Cl)N(C)[CH]1[Ag][O]C(C)=O` (stereo not drawn) [compound 9], the MIC in assay [1] was 1 µg/mL; against M. tuberculosis it was 16000 µg/mL; in assay [2] it was over 10 µg/mL. The compound further yielded an MIC90 in assay [3] of 1 µg/mL. Further, the MIC range in assay [4] was in the range of 1 to 2 µg/mL. The “antimicrobial effectiveness in MIC testing versus other more water soluble silver metal complexes” value in assay [4] was “more effective”.
Regarding `CC(=O)[O][Ag][CH]1N(C)c2c(n(C)c(=O)n(Cc3ccc4ccccc4c3)c2=O)N1C` (stereo not drawn) [compound 13], the values for the MIC (in assay [1]; against M. tuberculosis; in assay [2]) were 1 µg/mL, 16000 µg/mL and over 10 µg/mL, respectively. In assay [3], the MIC90 came to 0.8 µg/mL. This compound returned an MIC range in assay [4] of 0.8 to 2 µg/mL. For the same compound, the “antimicrobial effectiveness in MIC testing versus other more water soluble silver metal complexes” value in assay [4] is reported as “more effective”.

One may read the MIC90 as an inhibitory concentration at the 90% level, which refers to growth in some studies and to a panel of isolates in others.

The values above are taken from patent US20100210616A1, “METAL COMPLEXES INCORPORATED WITHIN BIODEGRADABLE NANOPARTICLES AND THEIR USE” (THE UNIVERSITY OF AKRON, priority 2007, published 2010).
